This experiment has as its target T1, squalene synthase (Bos taurus, UniProt Q32KR6).
T1 construct: squalene synthase activity present in bovine brain microsome fractions; from tissue; host or cells: bovine brain microsomes (crude)
T1 sequence (Q32KR6 1-417): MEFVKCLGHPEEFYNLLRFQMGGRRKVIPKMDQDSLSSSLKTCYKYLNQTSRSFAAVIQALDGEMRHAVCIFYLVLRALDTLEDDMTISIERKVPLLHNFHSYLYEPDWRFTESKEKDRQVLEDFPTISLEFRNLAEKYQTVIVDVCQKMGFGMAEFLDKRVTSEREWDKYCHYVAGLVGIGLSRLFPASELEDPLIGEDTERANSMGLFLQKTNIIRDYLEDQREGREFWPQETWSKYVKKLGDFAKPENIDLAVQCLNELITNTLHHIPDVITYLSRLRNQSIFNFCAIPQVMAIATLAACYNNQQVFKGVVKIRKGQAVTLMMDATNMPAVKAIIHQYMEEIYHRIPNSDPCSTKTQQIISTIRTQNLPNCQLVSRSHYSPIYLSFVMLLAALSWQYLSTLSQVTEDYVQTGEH
In words: Inhibition of squalene synthase activity in bovine brain microsomes. To be noted: 0.05 mM [^3 H]FPP. The class given is biochemical. The procedure: FIG. 7. Inhibition of Squalene Synthase by AGPP. The initial rates of squalene synthase activity were determined from bovine brain microsomal preparations in the presence of the indicated concentration of unlabeled AGPP (filled squares) or unlabeled FPP (open triangles) under the in vitro conditions described in "Experimental Procedures." Crude bovine brain microsomes and 0.05 mM [^3 H]FPP (105 cpm/pmol) and unlabeled AGPP and FPP were added at the indicated concentrations and incubated for 30 min. at 37° C. The reactions were terminated with 40% (wt/vol) KOH and 95% ethanol. Authentic carrier squalene (20 μg) was added and the reactions extracted with petroleum ether. The amount of labeled lipid formed was measured by scintillation counting. […]
Assay for Squalene Synthase Activity--Initial rates of squalene synthase activity present in bovine brain microsome fractions were assayed as previously described (19) with minor modifications. […] The remaining sample was analyzed on Silica gel G 60 TLC plates by developing with hexane (33). […]
FIG. 7 depicts inhibition of Squalene Synthase by AGPP. The initial rates of squalene synthase activity were determined from bovine brain microsomal preparations in the presence of the indicated concentration of unlabeled AGPP (filled squares) or unlabeled FPP (open triangles) (77). […] The amount of labeled lipid formed was measured by scintillation counting.

SMILES strings stand for the structures. Entries after “also recorded” stand apart in the source; their conditions may differ.

As usually defined, the IC50 is the concentration needed to halve the response being measured. High values mean weaker potency, low ones greater potency. Turning to `C/C(=C\COP(=O)(O)OP(=O)(O)O)CC/C=C(\C)CNc1ccccc1` [AGPP, (E,E)-8-Aniline-3,7-dimethyl-2,6-octadiene pyrophosphate], the “inhibition of squalene synthase, in words” value is on record as “does not Inhibit Squalene Synthase Activity; also recorded: far less potent in vitro inhibitor of squalene synthase activity than FPP; also recorded: far less potent in vitro inhibitor of squalene synthase activity than for FTase”. The same molecule had a half-maximal inhibitory concentration (IC50) (37° C., 30 min) of 1 mM.

(Values after patent publication US6284910A, “Farnesyl pyrophosphate analogs” (University of Kentucky Research Foundation, priority 1999, dated 2001).)
